Measurements as given in patent US20260124214A1, “HETEROCYCLIC COMPOUNDS FOR USE IN THE TREATMENT OF CANCER” (ARTIOS PHARMA LIMITED, priority 2021, published 2026).
Counter-ions that a name gives are not always drawn.

Target: T1, Human Polθ polymerase domain (aa1820-2590) (Homo sapiens, UniProt O75417)
T1 construct: Human Polθ polymerase domain (aa1820-2590) was expressed in E. Coli; made in house; host or cells: E. coli
T1 sequence (O75417 1820-2590): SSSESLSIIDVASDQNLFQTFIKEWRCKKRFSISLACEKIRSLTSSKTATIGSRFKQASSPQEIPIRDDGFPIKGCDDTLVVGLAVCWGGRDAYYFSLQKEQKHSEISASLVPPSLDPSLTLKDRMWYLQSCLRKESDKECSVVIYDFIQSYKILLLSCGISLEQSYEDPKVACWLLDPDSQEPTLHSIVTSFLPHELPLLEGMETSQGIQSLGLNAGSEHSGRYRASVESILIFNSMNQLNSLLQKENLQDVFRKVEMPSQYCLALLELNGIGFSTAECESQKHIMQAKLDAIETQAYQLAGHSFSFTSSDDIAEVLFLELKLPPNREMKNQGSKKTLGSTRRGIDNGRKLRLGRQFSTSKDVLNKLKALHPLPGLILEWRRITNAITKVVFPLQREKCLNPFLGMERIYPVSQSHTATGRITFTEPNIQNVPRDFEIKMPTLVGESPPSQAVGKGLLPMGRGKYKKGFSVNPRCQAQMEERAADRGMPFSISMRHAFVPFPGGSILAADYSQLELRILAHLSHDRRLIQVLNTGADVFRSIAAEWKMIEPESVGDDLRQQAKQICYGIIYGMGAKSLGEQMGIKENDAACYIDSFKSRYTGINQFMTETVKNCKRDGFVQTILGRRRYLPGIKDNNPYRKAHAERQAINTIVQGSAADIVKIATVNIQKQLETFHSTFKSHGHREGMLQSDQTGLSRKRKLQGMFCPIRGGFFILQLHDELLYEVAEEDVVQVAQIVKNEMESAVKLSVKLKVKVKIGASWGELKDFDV
Assay: Polθ Polymerase Domain WT KI Assay (PicoGreen)
Assay type: biochemical
Details: 100 nM DNA substrate, 0.156 nM Polθ, initial rates vs inhibitor concentration
Procedure, shortened: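 E. coli-expressed human Polθ polymerase domain (aa1820-2590) on annealed DNA II Short/Long primer-template (1.2:1), in 25 mM Tris pH 7.5, NaCl, 5% glycerol, 0.01% Triton X-100, 0.1 mg/ml BSA, 1 mM DTT, 1% DMSO. EDTA-quenched timepoints to 180 min, PicoGreen fluorescence. Initial rates vs inhibitor concentration fitted four-parameter for KI.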

Cc1cc(C(F)(F)F)cc(N2C(=O)C[C@@H]3CN(Cc4cn5c(n4)CN(C)CC5)c4c(C)cccc4N(C)C(=O)[C@H]32)n1 [Example 121, (3aR,11aS)-6,10-Dimethyl-1-(6-methyl-4-(trifluoromethyl)pyridin-2-yl)-5-((7-methyl-5,6,7,8-tetrahydroimidazo[1,2-a]pyrazin-2-yl)methyl)-1,3a,4,5,10,11a-hexahydro-2H-benzo[b]pyrrolo[2,3-f][1,4]diazocine-2,11(3H)-dione] was tested. Which Ki did it give?
The Ki was 0.258 nM.

For Cc1cc(C(F)(F)F)cc(N2C(=O)C[C@@H]3CN(Cc4ccc5c(c4)CCN(C)C5)c4c(F)cccc4N(C)C(=O)[C@H]32)n1 [Example 122, (3aR,11aS)-6-Fluoro-10-methyl-5-((2-methyl-1,2,3,4-tetrahydroisoquinolin-6-yl)methyl)-1-(6-methyl-4-(trifluoromethyl)pyridin-2-yl)-1,3a,4,5,10,11a-hexahydro-2H-benzo[b]pyrrolo[2,3-f][1,4]diazocine-2,11(3H)-dione], which Ki is on record?
The Ki was 1.94 nM.

Cc1cc(C(F)(F)F)cc(N2C(=O)C[C@@H]3CN(CC4COCCN4)c4c(Cl)cccc4N(C)C(=O)[C@H]32)n1 (single isomer, unassigned) [Example 108b] was tested. Which Ki did it give?
Its Ki is 1.55 nM.

For Cc1cc(C(F)(F)F)cc(N2C(=O)C[C@@H]3CN(CC4CCCNC4)c4c(F)cccc4N(C)C(=O)[C@H]32)n1 (stereo partly drawn) [Example 97, (3aR,11aS)-6-Fluoro-10-methyl-1-(6-methyl-4-(trifluoromethyl)pyridin-2-yl)-5-(piperidin-3-ylmethyl)-1,3a,4,5,10,11a-hexahydro-2H-benzo[b]pyrrolo[2,3-f][1,4]diazocine-2,11(3H)-dione hydrochloride], which Ki is on record?
Its Ki is 8.7 nM.

Which Ki does the source give for Cc1cc(C(F)(F)F)cc(N2C(=O)C[C@@H]3CN(C[C@H]4CCN(C)[C@H](C)C4)c4c(Cl)cccc4N(C)C(=O)[C@H]32)n1 (single isomer, unassigned) [Example 126c] here?
The Ki was 0.882 nM.

Cc1cc(C(F)(F)F)cc(N2C(=O)C[C@@H]3CN(CCOCCN(C)C)c4c(C)cccc4N(C)C(=O)[C@H]32)n1 [Example 90, (3aR,11aS)-5-(2-(2-(Dimethylamino)ethoxy)ethyl)-6,10-dimethyl-1-(6-methyl-4-(trifluoromethyl)pyridin-2-yl)-1,3a,4,5,10,11a-hexahydro-2H-benzo[b]pyrrolo[2,3-f][1,4]diazocine-2,11(3H)-dione] was tested. Which Ki did it give?
The Ki was 0.991 nM.

Which Ki does the source give for Cc1cc(C(F)(F)F)cc(N2C(=O)C[C@@H]3CN(c4ccccc4)c4c(F)cccc4N(C)C(=O)[C@H]32)n1 [Example 139, (3aR,11aS)-6-Fluoro-10-methyl-1-(6-methyl-4-(trifluoromethyl)pyridin-2-yl)-5-phenyl-1,3a,4,5,10,11a-hexahydro-2H-benzo[b]pyrrolo[2,3-f][1,4]diazocine-2,11(3H)-dione] here?
The Ki was 56.8 nM.

Cc1cc(C(F)(F)F)cc(N2C(=O)C[C@@H]3CN(CCN4C[C@@H](C)N[C@@H](C)C4)c4c(C)cccc4N(C)C(=O)[C@H]32)n1 (relative stereo) [Example 45, (3aR,11aS)-5-(2-(rel-(3R,5S)-3,5-Dimethylpiperazin-1-yl)ethyl)-6,10-dimethyl-1-(6-methyl-4-(trifluoromethyl)pyridin-2-yl)-1,3a,4,5,10,11a-hexahydro-2H-benzo[b]pyrrolo[2,3-f][1,4]diazocine-2,11(3H)-dione dihydrochloride] was tested. Which Ki did it give?
The Ki was 0.651 nM.

With Cc1cc(C(F)(F)F)cc(N2C(=O)C[C@@H]3CN(Cc4nc5n(c4F)CCN(C)C5)c4c(Cl)cccc4N(C)C(=O)[C@H]32)n1 [Example 81, (3aR,11aS)-6-Chloro-5-((3-fluoro-7-methyl-5,6,7,8-tetrahydroimidazo[1,2-a]pyrazin-2-yl)methyl)-10-methyl-1-(6-methyl-4-(trifluoromethyl)pyridin-2-yl)-1,3a,4,5,10,11a-hexahydro-2H-benzo[b]pyrrolo[2,3-f][1,4]diazocine-2,11(3H)-dione hydrochloride] as the compound, how does the Ki read?
Its Ki is 1 nM.

Which Ki does the source give for C=CCN1C[C@H]2CC(=O)N(c3cc(C(F)(F)F)cc(C)n3)[C@@H]2C(=O)N(C)c2cccc(Cl)c21 [Example 5, (3aR,11aS)-5-Allyl-6-chloro-10-methyl-1-(6-methyl-4-(trifluoromethyl)pyridin-2-yl)-1,3a,4,5,10,11a-hexahydro-2H-benzo[b]pyrrolo[2,3-f][1,4]diazocine-2,11(3H)-dione] here?
The Ki was 1.49 nM.

With Cc1cc(C(F)(F)F)cc(N2C(=O)C[C@@H]3CN(CC4COCCN4C)c4c(Cl)cccc4N(C)C(=O)[C@H]32)n1 (single isomer, unassigned) [Example 119b] as the compound, how does the Ki read?
The Ki was 1.08 nM.

How did the Ki turn out when Cc1cc(C(F)(F)F)cc(N2C(=O)C[C@@H]3CN(C[C@H]4COCCN4)c4c(Cl)cccc4N(C)C(=O)[C@H]32)n1 (racemic) [Example 108a, (3aR,11aS)-6-Chloro-10-methyl-1-(6-methyl-4-(trifluoromethyl)pyridin-2-yl)-5-(((S/R)-morpholin-3-yl)methyl)-1,3a,4,5,10,11a-hexahydro-2H-benzo[b]pyrrolo[2,3-f][1,4]diazocine-2,11(3H)-dione] was run?
The Ki was 2.17 nM.

CNCCNCCN1C[C@H]2CC(=O)N(c3cc(C(F)(F)F)cc(C)n3)[C@@H]2C(=O)N(C)c2cccc(C)c21 [Example 17, (3aR,11aS)-6,10-Dimethyl-1-(6-methyl-4-(trifluoromethyl)pyridin-2-yl)-5-(2-((2-(methylamino)ethyl)amino)ethyl)-1,3a,4,5,10,11a-hexahydro-2H-benzo[b]pyrrolo[2,3-f][1,4]diazocine-2,11(3H)-dione] was tested. Which Ki did it give?
The Ki was 2.43 nM.

For Cc1cc(C(F)(F)F)cc(N2C(=O)C[C@@H]3CN(C[C@@H]4CCN(C)[C@H](C)C4)c4c(Cl)cccc4N(C)C(=O)[C@H]32)n1 (single isomer, unassigned) [Example 126b], which Ki is on record?
The Ki was 1.91 nM.

Cc1cc(C(F)(F)F)cc(N2C(=O)C[C@@H]3CN(C[C@H]4CCNC4)c4c(C)cccc4N(C)C(=O)[C@H]32)n1 [Example 104, (3aR,11aS)-6,10-Dimethyl-1-(6-methyl-4-(trifluoromethyl)pyridin-2-yl)-5-(((S)-pyrrolidin-3-yl)methyl)-1,3a,4,5,10,11a-hexahydro-2H-benzo[b]pyrrolo[2,3-f][1,4]diazocine-2,11(3H)-dione hydrochloride] was tested. Which Ki did it give?
Its Ki is 2.95 nM.

How did the Ki turn out when Cc1cc(C(F)(F)F)cc(N2C(=O)C[C@@H]3CN(CC4CCCCN4C)c4c(Cl)cccc4N(C)C(=O)[C@H]32)n1 (single isomer, unassigned) [Example 117a] was run?
Its Ki is 3.37 nM.

Cc1cc(C(F)(F)F)cc(N2C(=O)C[C@@H]3CN(CCOCCN(C)C)c4c(Cl)cccc4N(C)C(=O)[C@H]32)n1 [Example 89, (3aR,11aS)-6-Chloro-5-(2-(2-(dimethylamino)ethoxy)ethyl)-10-methyl-1-(6-methyl-4-(trifluoromethyl)pyridin-2-yl)-1,3a,4,5,10,11a-hexahydro-2H-benzo[b]pyrrolo[2,3-f][1,4]diazocine-2,11(3H)-dione hydrochloride] was tested. Which Ki did it give?
Its Ki is 1.85 nM.

How did the Ki turn out when Cc1cc(C(F)(F)F)cc(N2C(=O)C[C@@H]3CN(Cc4ccc([C@@H]5CCCN5C)cc4)c4c(F)cccc4N(C)C(=O)[C@H]32)n1 (racemic) [Example 125b, (3aR,11aS)-6-Fluoro-10-methyl-1-(6-methyl-4-(trifluoromethyl)pyridin-2-yl)-5-(4-((S/R)-1-methylpyrrolidin-2-yl)benzyl)-1,3a,4,5,10,11a-hexahydro-2H-benzo[b]pyrrolo[2,3-f][1,4]diazocine-2,11(3H)-dione] was run?
Its Ki is 2.48 nM.

With Cc1cc(C(F)(F)F)cc(N2C(=O)C[C@@H]3CN(CC(C)O)c4c(Cl)cccc4N(C)C(=O)[C@H]32)n1 (mixture of isomers) [Example 131a, (3aR,11aS)-6-chloro-5-((S/R)-2-hydroxypropyl)-10-methyl-1-(6-methyl-4-(trifluoromethyl)pyridin-2-yl)-1,3a,4,5,10,11a-hexahydro-2H-benzo[b]pyrrolo[2,3-f][1,4]diazocine-2,11(3H)-dione] as the compound, how does the Ki read?
Its Ki is 1.99 nM.

For Cc1cc(C(F)(F)F)cc(N2C(=O)C[C@@H]3CN(CCN4CCN(C5COC5)CC4)c4c(Cl)cccc4N(C)C(=O)[C@H]32)n1 [Example 28, (3aR,11aS)-6-Chloro-10-methyl-1-(6-methyl-4-(trifluoromethyl)pyridin-2-yl)-5-(2-(4-(oxetan-3-yl)piperazin-1-yl)ethyl)-1,3a,4,5,10,11a-hexahydro-2H-benzo[b]pyrrolo[2,3-f][1,4]diazocine-2,11(3H)-dione], which Ki is on record?
The Ki was 1.97 nM.

Cc1cc(C(F)(F)F)cc(N2C(=O)C[C@@H]3CN(CCN4CCOCC4)c4c(Cl)cccc4N(C)C(=O)[C@H]32)n1 [Example 20, (3aR,11aS)-6-Chloro-10-methyl-1-(6-methyl-4-(trifluoromethyl)pyridin-2-yl)-5-(2-morpholinoethyl)-1,3a,4,5,10,11a-hexahydro-2H-benzo[b]pyrrolo[2,3-f][1,4]diazocine-2,11(3H)-dione] was tested. Which Ki did it give?
The Ki was 1.82 nM.
